Test results as given in the supplement of paper PMC10307832.

Experiments:
Assay in all cases: relative viability (nuclei count vs DMSO), 5 days (fraction); higher = more cells survive
NCI-H647 = system: NCI-H647
Method in brief: (§1)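 Relative viability was taken as the ratio of nuclei in treated wells to nuclei in vehicle wells. Lung cancer cell lines in 1536-well plates received compounds by pin tool one day after seeding, either one drug alone or a fixed anchor-drug dose plus five library-drug doses (not always all listed) in √10 steps. Nuclei were counted on 4× images after 5 days of treatment, and values are medians of duplicate plates.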

BEN = system: BEN
Method in brief: as §1

NCI-H1792 = system: NCI-H1792
Method in brief: as §1

NCI-H1395 = system: NCI-H1395
Method in brief: as §1

NCI-H522 = system: NCI-H522
Method in brief: as §1

NCI-H2009 = system: NCI-H2009
Method in brief: as §1

SK-LU-1 = system: SK-LU-1
Method in brief: as §1

NCI-H1355 = system: NCI-H1355
Method in brief: as §1

NCI-H1993 = system: NCI-H1993
Method in brief: as §1

HARA = system: HARA
Method in brief: as §1

SK-MES-1 = system: SK-MES-1
Method in brief: as §1

NCI-H1734 = system: NCI-H1734
Method in brief: as §1

NCI-H2170 = system: NCI-H2170
Method in brief: as §1

HCC-366 = system: HCC-366
Method in brief: as §1

NCI-H2342 = system: NCI-H2342
Method in brief: as §1

LOU-NH91 = system: LOU-NH91
Method in brief: as §1

NCI-H1437 = system: NCI-H1437
Method in brief: as §1

NCI-H2405 = system: NCI-H2405
Method in brief: as §1

NCI-H2087 = system: NCI-H2087
Method in brief: as §1

NCI-H661 = system: NCI-H661
Method in brief: as §1

EKVX = system: EKVX
Method in brief: as §1

HCC-827 = system: HCC-827
Method in brief: as §1

Which results are given for `CCN(CC)CCCCNc1ncc2cc(-c3cc(OC)cc(OC)c3)c(NC(=O)NC(C)(C)C)nc2n1` + CC(=O)Nc1cccc(-n2c(=O)n(C3CC3)c(=O)c3c(Nc4ccc(I)cc4F)n(C)c(=O)c(C)c32)c1 [Trametinib] (partner 0.02 µM)?
relative viability (NCI-H647; first compound 0.01 µM): 0.382; relative viability (NCI-H647; first compound 0.03162 µM): 0.517; relative viability (NCI-H647; first compound 0.1 µM): 0.512; relative viability (NCI-H647; first compound 0.3162 µM): 0.456; relative viability (NCI-H647; first compound 1 µM): 0.267; relative viability (BEN; first compound 0.01 µM): 1.15; relative viability (BEN; first compound 0.03162 µM): 0.797; relative viability (BEN; first compound 0.1 µM): 0.978; relative viability (BEN; first compound 0.3162 µM): 1.09; relative viability (BEN; first compound 1 µM): 0.888; relative viability (NCI-H1792; first compound 0.01 µM): 0.432; relative viability (NCI-H1792; first compound 0.03162 µM): 0.42; relative viability (NCI-H1792; first compound 0.1 µM): 0.415; relative viability (NCI-H1792; first compound 0.3162 µM): 0.518; relative viability (NCI-H1792; first compound 1 µM): 0.232; relative viability (NCI-H1395; first compound 0.01 µM): 1.05; relative viability (NCI-H1395; first compound 0.03162 µM): 0.918; relative viability (NCI-H1395; first compound 0.1 µM): 0.907; relative viability (NCI-H1395; first compound 0.3162 µM): 0.63; relative viability (NCI-H1395; first compound 1 µM): 0.568; relative viability (NCI-H522; first compound 0.01 µM): 0.799; relative viability (NCI-H522; first compound 0.03162 µM): 0.772; relative viability (NCI-H522; first compound 0.1 µM): 0.787; relative viability (NCI-H522; first compound 0.3162 µM): 0.664; relative viability (NCI-H522; first compound 1 µM): 0.883; relative viability (NCI-H2009; first compound 0.01 µM): 0.264; relative viability (NCI-H2009; first compound 0.03162 µM): 0.244; relative viability (NCI-H2009; first compound 0.1 µM): 0.266; relative viability (NCI-H2009; first compound 0.3162 µM): 0.254; relative viability (NCI-H2009; first compound 1 µM): 0.192; relative viability (SK-LU-1; first compound 0.01 µM): 0.491; relative viability (SK-LU-1; first compound 0.03162 µM): 0.444; relative viability (SK-LU-1; first compound 0.1 µM): 0.434; relative viability (SK-LU-1; first compound 0.3162 µM): 0.409; relative viability (SK-LU-1; first compound 1 µM): 0.333; relative viability (NCI-H1355; first compound 0.01 µM): 0.462; relative viability (NCI-H1355; first compound 0.03162 µM): 0.436; relative viability (NCI-H1355; first compound 0.1 µM): 0.479; relative viability (NCI-H1355; first compound 0.3162 µM): 0.502; relative viability (NCI-H1355; first compound 1 µM): 0.382; relative viability (NCI-H1993; first compound 0.01 µM): 0.567; relative viability (NCI-H1993; first compound 0.03162 µM): 0.5; relative viability (NCI-H1993; first compound 0.1 µM): 0.53; relative viability (NCI-H1993; first compound 0.3162 µM): 0.557; relative viability (NCI-H1993; first compound 1 µM): 0.0258; relative viability (HARA; first compound 0.01 µM): 0.589; relative viability (HARA; first compound 0.03162 µM): 0.632; relative viability (HARA; first compound 0.1 µM): 0.645; relative viability (HARA; first compound 0.3162 µM): 0.579; relative viability (HARA; first compound 1 µM): 0.466; relative viability (SK-MES-1; first compound 0.01 µM): 0.601; relative viability (SK-MES-1; first compound 0.03162 µM): 0.562; relative viability (SK-MES-1; first compound 0.1 µM): 0.525; relative viability (SK-MES-1; first compound 0.3162 µM): 0.584; relative viability (SK-MES-1; first compound 1 µM): 0.512; relative viability (NCI-H1734; first compound 0.01 µM): 0.665; relative viability (NCI-H1734; first compound 0.03162 µM): 0.678; relative viability (NCI-H1734; first compound 0.1 µM): 0.627; relative viability (NCI-H1734; first compound 0.3162 µM): 0.581; relative viability (NCI-H1734; first compound 1 µM): 0.407; relative viability (NCI-H2170; first compound 0.01 µM): 0.987; relative viability (NCI-H2170; first compound 0.03162 µM): 0.929; relative viability (NCI-H2170; first compound 0.1 µM): 0.894; relative viability (NCI-H2170; first compound 0.3162 µM): 1; relative viability (NCI-H2170; first compound 1 µM): 0.719; relative viability (HCC-366; first compound 0.01 µM): 0.352; relative viability (HCC-366; first compound 0.03162 µM): 0.386; relative viability (HCC-366; first compound 0.1 µM): 0.437; relative viability (HCC-366; first compound 0.3162 µM): 0.358; relative viability (HCC-366; first compound 1 µM): 0.309; relative viability (NCI-H2342; first compound 0.01 µM): 0.787; relative viability (NCI-H2342; first compound 0.03162 µM): 0.783; relative viability (NCI-H2342; first compound 0.1 µM): 0.815; relative viability (NCI-H2342; first compound 0.3162 µM): 0.858; relative viability (NCI-H2342; first compound 1 µM): 0.928; relative viability (LOU-NH91; first compound 0.01 µM): 0.758; relative viability (LOU-NH91; first compound 0.03162 µM): 0.771; relative viability (LOU-NH91; first compound 0.1 µM): 0.829; relative viability (LOU-NH91; first compound 0.3162 µM): 0.844; relative viability (LOU-NH91; first compound 1 µM): 0.766; relative viability (NCI-H1437; first compound 0.01 µM): 0.564; relative viability (NCI-H1437; first compound 0.03162 µM): 0.529; relative viability (NCI-H1437; first compound 0.1 µM): 0.622; relative viability (NCI-H1437; first compound 0.3162 µM): 0.521; relative viability (NCI-H1437; first compound 1 µM): 0.495; relative viability (NCI-H2405; first compound 0.01 µM): 0.574; relative viability (NCI-H2405; first compound 0.03162 µM): 0.669; relative viability (NCI-H2405; first compound 0.1 µM): 0.796; relative viability (NCI-H2405; first compound 0.3162 µM): 0.655; relative viability (NCI-H2405; first compound 1 µM): 0.5; relative viability (NCI-H2087; first compound 0.01 µM): 0.202; relative viability (NCI-H2087; first compound 0.03162 µM): 0.171; relative viability (NCI-H2087; first compound 0.1 µM): 0.217; relative viability (NCI-H2087; first compound 0.3162 µM): 0.189; relative viability (NCI-H2087; first compound 1 µM): 0.209; relative viability (NCI-H661; first compound 0.01 µM): 0.592; relative viability (NCI-H661; first compound 0.03162 µM): 0.589; relative viability (NCI-H661; first compound 0.1 µM): 0.569; relative viability (NCI-H661; first compound 0.3162 µM): 0.563; relative viability (NCI-H661; first compound 1 µM): 0.473; relative viability (EKVX; first compound 0.03162 µM): 0.4; relative viability (EKVX; first compound 0.1 µM): 0.365; relative viability (EKVX; first compound 0.3162 µM): 0.328; relative viability (EKVX; first compound 1 µM): 0.311; relative viability (HCC-827; first compound 0.01 µM): 0.539; relative viability (HCC-827; first compound 0.03162 µM): 0.59; relative viability (HCC-827; first compound 0.1 µM): 0.585; relative viability (HCC-827; first compound 0.3162 µM): 0.587; relative viability (HCC-827; first compound 1 µM): 0.516
